Measured values: US6376175B1, “Methods of discovering chemicals capable of functioning as gene expression modulators” (OSI Pharmaceuticals, Inc., priority 1989, dated 2002)
Like-named read-outs stand apart in the source and are kept apart here.

Assays:
[1] = test system: human G-CSF promoter; format: cell-based; conditions: 7-hour incubation, serum-free media
From the text: A human bladder carcinoma cell line (U5637, ATCC number HTB 9) was used for transfection of plasmids containing the human Granulocyte-Colony Stimulating Factor (G-CSF) promoter (see below) and was maintained in RPMI medium supplemented with 10% FCS. For HTP screening, transfected 5637 clones were transferred to a serum free defined medium identical to that used for the NIH/3T3 clones.
The sequences of OL-1, OL-2 and OL-5 recognize the G-CSF promoter region, OL-4 recognizes the first intron/exon junction and OL-3 recognizes sequences within the second exon (32). One of the clones isolated from the leukocyte library using these oligonucleotide probes contains a 3.5 kb SalI-BamHI fragment of G-CSF genomic sequence consisting of 3.3 kb of promoter sequence and two hundred base pairs of the coding region. This fragment was inserted into the vector pGEM-7-Zf (Promega, Madison, Wis.) which had previously been digested with SalI/BamHI, resulting in the vector pJM710 (FIG. 7). pJM710 was then digested with PstI, and the resulting 1.6 kb fragment containing G-CSF upstream sequences and the first 15 bases of the G-CSF leader sequence was inserted into the PstI site of pGEM5-Luci (FIG. 8) to generate pG-Lucl (FIG. 9). This construct was then used for transfection of 5637 human bladder carcinoma cells as described below in section E3. pGEM5-Luci (FIG. 8) had previously been constructed by inserting the […]/SalI fragment from pSVLuci (FIG. 2) containing the luciferase coding sequence and the SV40 late polyadenylation signal into pGEM 5-Zf (Promega, Madison Wis.) digested with XhoI/SalI.
pG-LUC1 (FIG. 9) and pRSVNeo were co-transfected into 5637 human bladder carcinoma cells as described above. Selection of G418 resistant clones was as described above except for using a concentration of 0.1 mg/ml G418. Analysis of cell clones was performed as above except that a known inducer of G-CSF expression (1-5 µg/ml lipopolysaccharide (LPS), E. coli serotype 055:b5, Difco, Detroit, Mich. or Sigma, St. Louis, Mo.) was used in place of dexamethasone.
Cell plating: Dynatech Microlite 96 well plates were custom pretreated for cell attachment by Dynatech Laboratories, Inc. (Chantilly, Va.). Alternatively, the 96 well plates were treated with 50 µl per well of human fibronectin (hFN, 15 µg/ml in PBS, Collaborative Research, Bedford, Mass.) overnight at 37 C. hFN-treated plates were washed with PBS using an Ultrawash 2 Microplate Washer (Dynatech Labs), to remove excess hFN prior to cell plating. M10, 532, and G21 cells maintained in their respective serum media (with 0.2 mg/ml G418) were washed with PBS, harvested by trypsinization, and counted using a hemocytometer and the Trypan Blue exclusion method according to protocols provided by Sigma, St. Louis, Mo. Chemical Company. Cells were then diluted into serum free defined media (with 0.2 mg/ml G418), and 0.2 ml of cell suspension per well was plated onto Dynatech treated plates (532 and G21) or hFN-treated plates (M10) using a Cetus Pro/Pette (Cetus, Emeryville Calif.). Plates were incubated overnight at 37 C in a humidified 5% CO2 atmosphere.
Addition of Chemicals to Cells: Chemicals from the Oncogene Science file were dissolved in DMSO at concentrations of 3-30 mg/ml. A liquid handling laboratory work station (RSP 5052, Tecan U.S. Chapel Hill, N.C.) was used to dilute the chemicals (three dilutions; 5 fold, 110 fold, and 726 fold). 10 11 of each dilution were added to each of quadruplicate samples of cells contained in the wells of 96-well Dyantech Microlite Plates. […]

[2] = test system: secreted G-CSF protein; assay: Two-antibody sandwich immunoassay of G-CSF secreted by 5637 bladder carcinoma cells; format: cell-based, human; conditions: 5637 cells, 48 hours, serum-containing media; TNF-alpha 5 ng/ml; #542 50 uM; #1780 1 uM and 0.2 uM; FIG. 55
Protocol: Supernatants from 5637 bladder carcinoma cells incubated with chemicals registering as positives in the G-CSF promoter/luciferase High-Throughput assay were assayed for secreted G-CSF protein using the two-antibody sandwich immunoassay (96). The G-CSF Assay kit manufactured by Oncogene Science, Inc. was used and the manufacturer's instructions were followed.
The levels of G-CSF in the cell supernatants were determined by a sandwich-antibody assay as described in Materials and Methods (FIG. 55).

| Molecule | increase of luciferase expression directed by the G-CSF promoter, G 21 cells ([1]; absence of EGF) | increase of luciferase expression directed by the G-CSF promoter, G 21 cells ([1]; presence of EGF) | G-CSF secretion into media [2] |
| --- | --- | --- | --- |
| CCCCCCCCCCCCCC(=O)O[C@@H]1[C@@H](C)[C@@]2(O)[C@@H](C=C(CO)C[C@]3(O)C(=O)C(C)=C[C@@H]23)[C@@H]2C(C)(C)[C@]12OC(C)=O [PMA, phorbo-myristate-acetate, reference compound] | 34.6 fold | 24.6 fold | – |
| TNF-alpha | 2.1 fold | 2.8 fold | increased G-CSF secretion |
